# Experimental data as given in PMC9653409, “Generative deep learning enables the discovery of a potent and selective RIPK1 inhibitor” (Nature Communications, 2022).
# Read-outs that look alike come from different tables or passages of the source.
# Columns and labels:
# Experiment in all cases: Kinase inhibitory activity profiling of RI-962@10 µM (406 kinases, Eurofins)
# Type in all cases: biochemical
# [1] = biological target: panel of human kinases (kinase named in endpoint) (Homo sapiens, UniProt P16234, D842V); conditions: 10 µM; read-out: Activity (%), PDGFRα(D842V)(h)
# Procedure, shortened: (§1)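 Radiometric filter-binding kinase assays: enzyme preincubated 15 min with compound in 8 mM MOPS pH 7.0, 0.2 mM EDTA, 250 μM peptide substrate, 10 mM magnesium acetate, 10 μM [γ-33P]-ATP. Reaction started with Mg/ATP, run 40 min at room temperature, stopped with phosphoric acid; 33P incorporation read by scintillation counting. Other kinases by similar protocols.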
# [2] = biological target: panel of human kinases (kinase named in endpoint) (Homo sapiens, UniProt P00519, Y253F); conditions: 10 µM; read-out: Activity (%), Abl(Y253F)(h)
# Procedure, shortened: as §1
# [3] = biological target: panel of human kinases (kinase named in endpoint) (Homo sapiens, UniProt P00533, T790M); conditions: 10 µM; read-out: Activity (%), EGFR(T790M)(h)
# Procedure, shortened: as §1
# [4] = biological target: panel of human kinases (kinase named in endpoint) (Homo sapiens, UniProt Q9H1R3); conditions: 10 µM; read-out: Activity (%), MYLK2(h)
# Procedure, shortened: as §1
# [5] = biological target: panel of human kinases (kinase named in endpoint) (Homo sapiens, UniProt P53671); conditions: 10 µM; read-out: Activity (%), LIMK2(h)
# Procedure, shortened: as §1
# [6] = biological target: panel of human kinases (kinase named in endpoint) (Homo sapiens, UniProt Q15759); conditions: 10 µM; read-out: Activity (%), SAPK2b(h)
# Procedure, shortened: as §1
# [7] = biological target: panel of human kinases (kinase named in endpoint) (Homo sapiens, UniProt Q9NZJ5); conditions: 10 µM; read-out: Activity (%), PEK(h)
# Procedure, shortened: as §1
# [8] = biological target: panel of human kinases (kinase named in endpoint) (Homo sapiens, UniProt P15056); conditions: 10 µM; read-out: Activity (%), B-Raf(h)
# Procedure, shortened: as §1
# [9] = biological target: panel of human kinases (kinase named in endpoint) (Homo sapiens, UniProt Q16539, T106M); conditions: 10 µM; read-out: Activity (%), SAPK2a(T106M)(h)
# Procedure, shortened: as §1
# [10] = biological target: panel of human kinases (kinase named in endpoint) (Homo sapiens, UniProt O15530); conditions: 10 µM; read-out: Activity (%), PDK1(h)
# Procedure, shortened: as §1
# [11] = biological target: panel of human kinases (kinase named in endpoint) (Homo sapiens, UniProt Q14680); conditions: 10 µM; read-out: Activity (%), MELK(h)
# Procedure, shortened: as §1
# [12] = biological target: panel of human kinases (kinase named in endpoint) (Homo sapiens, UniProt Q9UKE5); conditions: 10 µM; read-out: Activity (%), TNIK(h)
# Procedure, shortened: as §1
# [13] = biological target: panel of human kinases (kinase named in endpoint) (Homo sapiens, UniProt P48736); conditions: 10 µM; read-out: Activity (%), PI3 Kinase (p120g)(h)
# Procedure, shortened: as §1
# [14] = biological target: panel of human kinases (kinase named in endpoint) (Homo sapiens, UniProt P08581, Y1230H); conditions: 10 µM; read-out: Activity (%), Met(Y1248H)(h)
# Procedure, shortened: as §1
# [15] = biological target: panel of human kinases (kinase named in endpoint) (Homo sapiens, UniProt P43405); conditions: 10 µM; read-out: Activity (%), Syk(h)
# Procedure, shortened: as §1
# [16] = biological target: panel of human kinases (kinase named in endpoint) (Homo sapiens, UniProt O00141); conditions: 10 µM; read-out: Activity (%), SGK(h)
# Procedure, shortened: as §1
# [17] = biological target: panel of human kinases (kinase named in endpoint) (Homo sapiens, UniProt P42336); conditions: 10 µM
# Procedure, shortened: as §1
# [18] = biological target: panel of human kinases (kinase named in endpoint) (Homo sapiens, UniProt P30530); conditions: 10 µM; read-out: Activity (%), Axl(h)
# Procedure, shortened: as §1
# [19] = biological target: panel of human kinases (kinase named in endpoint) (Homo sapiens, UniProt O14578); conditions: 10 µM; read-out: Activity (%), CRIK(h)
# Procedure, shortened: as §1
# [20] = biological target: panel of human kinases (kinase named in endpoint) (Homo sapiens, UniProt P21802, N549H); conditions: 10 µM; read-out: Activity (%), FGFR2(N549H)(h)
# Procedure, shortened: as §1
# [21] = biological target: panel of human kinases (kinase named in endpoint) (Homo sapiens, UniProt Q9BZL6); conditions: 10 µM; read-out: Activity (%), PKD2(h)
# Procedure, shortened: as §1
# [22] = biological target: panel of human kinases (kinase named in endpoint) (Homo sapiens, UniProt Q13523); conditions: 10 µM; read-out: Activity (%), PRP4(h)
# Procedure, shortened: as §1
# [23] = biological target: panel of human kinases (kinase named in endpoint) (Homo sapiens, UniProt Q9H0K1); conditions: 10 µM; read-out: Activity (%), SIK2(h)
# Procedure, shortened: as §1
# [24] = biological target: panel of human kinases (kinase named in endpoint) (Homo sapiens, UniProt Q9H2X6); conditions: 10 µM; read-out: Activity (%), HIPK2(h)
# Procedure, shortened: as §1
# [25] = biological target: panel of human kinases (kinase named in endpoint) (Homo sapiens, UniProt Q9P0L2); conditions: 10 µM; read-out: Activity (%), MARK1(h)
# Procedure, shortened: as §1
# Chain of panel of human kinases (kinase named in endpoint) (Homo sapiens, UniProt P42336) (P42336 whole entry): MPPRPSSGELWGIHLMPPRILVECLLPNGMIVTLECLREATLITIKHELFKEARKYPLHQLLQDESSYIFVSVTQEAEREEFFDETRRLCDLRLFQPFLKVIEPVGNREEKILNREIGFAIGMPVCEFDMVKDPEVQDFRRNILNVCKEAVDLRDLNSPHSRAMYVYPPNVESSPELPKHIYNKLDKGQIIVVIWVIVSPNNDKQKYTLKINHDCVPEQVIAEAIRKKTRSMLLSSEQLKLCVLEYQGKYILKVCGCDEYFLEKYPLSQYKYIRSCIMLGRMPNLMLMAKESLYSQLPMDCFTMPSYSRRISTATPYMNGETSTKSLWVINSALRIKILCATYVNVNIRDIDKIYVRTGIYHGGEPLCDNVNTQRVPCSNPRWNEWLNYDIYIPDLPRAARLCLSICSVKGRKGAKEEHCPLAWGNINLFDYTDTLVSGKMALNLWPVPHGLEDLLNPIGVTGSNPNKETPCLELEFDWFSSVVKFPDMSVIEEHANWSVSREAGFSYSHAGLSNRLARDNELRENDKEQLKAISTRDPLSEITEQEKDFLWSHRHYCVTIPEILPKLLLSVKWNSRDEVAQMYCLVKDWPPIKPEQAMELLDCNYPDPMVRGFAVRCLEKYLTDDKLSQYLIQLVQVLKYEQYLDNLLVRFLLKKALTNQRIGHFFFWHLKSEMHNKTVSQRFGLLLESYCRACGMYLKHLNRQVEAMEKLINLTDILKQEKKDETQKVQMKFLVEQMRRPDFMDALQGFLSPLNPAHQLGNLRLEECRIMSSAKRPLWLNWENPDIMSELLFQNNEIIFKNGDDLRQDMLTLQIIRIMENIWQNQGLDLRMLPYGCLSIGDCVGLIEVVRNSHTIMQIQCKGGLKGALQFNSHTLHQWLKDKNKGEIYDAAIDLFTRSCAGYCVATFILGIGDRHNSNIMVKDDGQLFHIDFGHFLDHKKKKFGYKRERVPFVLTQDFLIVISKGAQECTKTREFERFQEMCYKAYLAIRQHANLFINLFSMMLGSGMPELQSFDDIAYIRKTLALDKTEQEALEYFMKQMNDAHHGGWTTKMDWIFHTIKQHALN
# Chain of panel of human kinases (kinase named in endpoint) (Homo sapiens, UniProt Q9H1R3) (Q9H1R3 whole entry): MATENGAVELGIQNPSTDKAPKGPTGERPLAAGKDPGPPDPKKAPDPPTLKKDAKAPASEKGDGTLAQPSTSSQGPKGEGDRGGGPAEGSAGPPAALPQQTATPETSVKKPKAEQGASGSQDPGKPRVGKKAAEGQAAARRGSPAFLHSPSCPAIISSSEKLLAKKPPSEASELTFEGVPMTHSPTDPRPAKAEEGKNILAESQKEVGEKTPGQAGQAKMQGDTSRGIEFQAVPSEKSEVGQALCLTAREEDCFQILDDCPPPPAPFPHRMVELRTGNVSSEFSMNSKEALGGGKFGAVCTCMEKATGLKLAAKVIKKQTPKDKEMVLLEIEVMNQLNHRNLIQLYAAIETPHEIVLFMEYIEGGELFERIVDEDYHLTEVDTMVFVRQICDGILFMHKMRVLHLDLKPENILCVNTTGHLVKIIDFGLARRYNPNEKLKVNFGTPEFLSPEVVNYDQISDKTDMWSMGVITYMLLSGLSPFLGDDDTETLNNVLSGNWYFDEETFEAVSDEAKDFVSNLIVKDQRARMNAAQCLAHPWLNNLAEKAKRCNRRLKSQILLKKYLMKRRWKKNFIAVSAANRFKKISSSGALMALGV
# Chain of panel of human kinases (kinase named in endpoint) (Homo sapiens, UniProt Q13523) (Q13523 whole entry): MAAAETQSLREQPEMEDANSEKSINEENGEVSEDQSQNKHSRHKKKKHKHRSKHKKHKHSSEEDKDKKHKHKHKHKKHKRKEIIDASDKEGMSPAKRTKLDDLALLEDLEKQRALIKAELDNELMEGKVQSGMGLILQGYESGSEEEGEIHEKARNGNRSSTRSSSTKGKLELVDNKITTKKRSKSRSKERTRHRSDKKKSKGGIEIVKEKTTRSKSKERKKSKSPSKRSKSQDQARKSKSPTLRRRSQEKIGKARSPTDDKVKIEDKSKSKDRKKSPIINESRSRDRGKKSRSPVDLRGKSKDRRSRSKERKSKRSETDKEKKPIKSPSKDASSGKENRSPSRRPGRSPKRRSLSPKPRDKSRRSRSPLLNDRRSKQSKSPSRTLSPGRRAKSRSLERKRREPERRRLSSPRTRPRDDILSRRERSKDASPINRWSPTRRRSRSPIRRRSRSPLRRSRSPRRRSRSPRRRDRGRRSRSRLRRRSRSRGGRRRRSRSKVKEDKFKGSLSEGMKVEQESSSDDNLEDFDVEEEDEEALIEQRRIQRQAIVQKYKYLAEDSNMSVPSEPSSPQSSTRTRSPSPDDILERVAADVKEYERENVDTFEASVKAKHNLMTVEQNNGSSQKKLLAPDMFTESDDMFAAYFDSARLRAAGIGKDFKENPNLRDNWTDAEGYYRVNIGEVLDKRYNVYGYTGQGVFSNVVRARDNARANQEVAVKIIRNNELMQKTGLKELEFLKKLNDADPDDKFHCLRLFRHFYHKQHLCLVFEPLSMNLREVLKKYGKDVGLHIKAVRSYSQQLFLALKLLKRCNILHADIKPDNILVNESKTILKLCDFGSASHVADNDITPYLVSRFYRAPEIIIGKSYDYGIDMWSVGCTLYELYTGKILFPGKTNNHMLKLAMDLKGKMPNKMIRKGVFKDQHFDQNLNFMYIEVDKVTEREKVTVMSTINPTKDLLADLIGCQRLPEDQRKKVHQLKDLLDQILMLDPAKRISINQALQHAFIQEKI
# Chain of panel of human kinases (kinase named in endpoint) (Homo sapiens, UniProt O00141) (O00141 whole entry): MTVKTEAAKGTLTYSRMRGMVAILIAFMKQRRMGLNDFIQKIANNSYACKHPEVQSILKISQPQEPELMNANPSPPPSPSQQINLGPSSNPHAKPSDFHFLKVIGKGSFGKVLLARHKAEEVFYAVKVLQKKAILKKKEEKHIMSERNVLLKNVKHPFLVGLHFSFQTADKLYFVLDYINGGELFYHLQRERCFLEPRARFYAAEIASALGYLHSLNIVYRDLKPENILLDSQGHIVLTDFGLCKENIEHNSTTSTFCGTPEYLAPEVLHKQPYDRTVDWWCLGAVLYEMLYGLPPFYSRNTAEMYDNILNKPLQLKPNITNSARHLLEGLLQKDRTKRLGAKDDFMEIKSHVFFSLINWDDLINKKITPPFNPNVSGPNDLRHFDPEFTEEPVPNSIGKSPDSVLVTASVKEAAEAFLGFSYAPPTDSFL
# Chain of panel of human kinases (kinase named in endpoint) (Homo sapiens, UniProt Q14680) (Q14680 whole entry): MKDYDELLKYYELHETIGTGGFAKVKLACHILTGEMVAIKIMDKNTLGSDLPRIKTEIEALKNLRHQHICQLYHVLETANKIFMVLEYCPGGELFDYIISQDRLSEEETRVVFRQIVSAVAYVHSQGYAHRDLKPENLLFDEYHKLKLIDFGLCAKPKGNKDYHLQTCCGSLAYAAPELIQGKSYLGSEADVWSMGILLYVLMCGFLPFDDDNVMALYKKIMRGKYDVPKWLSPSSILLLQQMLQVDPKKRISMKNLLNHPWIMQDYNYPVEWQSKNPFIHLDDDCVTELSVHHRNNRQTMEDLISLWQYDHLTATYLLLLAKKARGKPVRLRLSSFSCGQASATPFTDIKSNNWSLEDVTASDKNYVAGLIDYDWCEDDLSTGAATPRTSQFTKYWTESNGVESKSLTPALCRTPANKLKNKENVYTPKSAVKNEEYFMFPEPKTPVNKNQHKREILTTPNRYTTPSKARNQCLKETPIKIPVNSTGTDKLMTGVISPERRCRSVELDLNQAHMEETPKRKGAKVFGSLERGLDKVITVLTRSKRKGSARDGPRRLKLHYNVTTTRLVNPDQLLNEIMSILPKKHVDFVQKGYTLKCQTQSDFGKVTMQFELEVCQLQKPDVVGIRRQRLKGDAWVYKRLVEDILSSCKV
# Chain of panel of human kinases (kinase named in endpoint) (Homo sapiens, UniProt Q9NZJ5) (Q9NZJ5 30-1116): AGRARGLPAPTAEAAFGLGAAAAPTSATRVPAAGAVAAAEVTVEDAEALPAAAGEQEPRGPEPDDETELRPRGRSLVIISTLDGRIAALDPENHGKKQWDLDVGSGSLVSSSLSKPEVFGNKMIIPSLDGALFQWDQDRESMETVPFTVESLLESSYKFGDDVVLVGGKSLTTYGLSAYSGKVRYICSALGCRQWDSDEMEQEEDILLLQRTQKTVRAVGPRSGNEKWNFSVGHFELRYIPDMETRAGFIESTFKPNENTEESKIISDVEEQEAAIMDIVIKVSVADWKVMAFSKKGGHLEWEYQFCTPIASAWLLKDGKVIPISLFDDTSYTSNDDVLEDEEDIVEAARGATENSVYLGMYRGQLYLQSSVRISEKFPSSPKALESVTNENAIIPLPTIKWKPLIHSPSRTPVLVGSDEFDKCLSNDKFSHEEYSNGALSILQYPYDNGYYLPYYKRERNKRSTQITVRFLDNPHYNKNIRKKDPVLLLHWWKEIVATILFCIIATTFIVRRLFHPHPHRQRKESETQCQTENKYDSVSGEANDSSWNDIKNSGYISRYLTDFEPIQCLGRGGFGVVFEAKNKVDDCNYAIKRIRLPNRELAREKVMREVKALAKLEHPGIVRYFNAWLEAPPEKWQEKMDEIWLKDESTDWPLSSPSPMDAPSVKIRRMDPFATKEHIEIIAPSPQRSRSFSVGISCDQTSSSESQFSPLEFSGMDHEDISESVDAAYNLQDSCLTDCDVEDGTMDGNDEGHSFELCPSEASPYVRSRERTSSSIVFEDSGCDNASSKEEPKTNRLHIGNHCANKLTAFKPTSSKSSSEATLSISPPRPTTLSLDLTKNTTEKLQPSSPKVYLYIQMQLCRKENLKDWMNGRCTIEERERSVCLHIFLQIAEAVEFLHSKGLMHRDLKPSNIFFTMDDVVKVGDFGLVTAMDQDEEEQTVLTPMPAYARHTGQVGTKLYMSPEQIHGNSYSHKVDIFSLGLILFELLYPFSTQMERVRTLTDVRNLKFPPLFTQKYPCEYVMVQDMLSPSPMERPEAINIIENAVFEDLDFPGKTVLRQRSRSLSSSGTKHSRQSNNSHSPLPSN
structure (smiles),measurement,setting,value
CC(C)C(=O)Nc1nc2cc(-c3ccc4c(c3)c(C(=O)NC(C)c3ccccc3)cn4C)ccn2n1 (centres unmarked) [RI-962],activity at 10 µM,[1],104%
same,activity at 10 µM,[2],102%
same,activity at 10 µM,[3],119%
same,activity at 10 µM,[4],86%
same,activity at 10 µM,[5],101%
same,activity at 10 µM,[6],84%
same,activity at 10 µM,[7],94%
same,activity at 10 µM,[8],99%
same,activity at 10 µM,[9],86%
same,activity at 10 µM,[10],101%
same,activity at 10 µM,[11],95%
same,activity at 10 µM,[12],65%
same,activity at 10 µM,[13],80%
same,activity at 10 µM,[14],99%
same,activity at 10 µM,[15],55%
same,activity at 10 µM,[16],85%
same,activity at 10 µM,"[17]; read-out: Activity (%), PI3 Kinase (p110a/p65a)(h)",97%
same,activity at 10 µM,"[17]; read-out: Activity (%), PI3 Kinase (p110a/p85a)(h)",94%
same,activity at 10 µM,[18],110%
same,activity at 10 µM,[19],101%
same,activity at 10 µM,[20],100%
same,activity at 10 µM,[21],98%
same,activity at 10 µM,[22],88%
same,activity at 10 µM,[23],101%
same,activity at 10 µM,[24],72%
same,activity at 10 µM,[25],99%
